In experiment [1] the test system is amphotropic murine leukemia virus. The experiment in a line: AMLV pseudotyped virus entry counter-screen, same infection protocol. It counts as cell-based. The following applies: for luciferase units, AMLV entry: duplicates; for AMLVpp % inh: peptide library screen, cell entry inhibition vs uninhibited control. The method, then: Infection of hepatoma cell lines with HCV pseudotype particles and screen for inhibitory peptides. The hepatoma cells, Huh7, was seeded at 8000 cells in 90 ul medium in 96-well plate. In the case of the inhibitor screen, the inhibitor was incubated with cells for one hour at 37° C. and then 50 ul viral supernatant was added to the cells 24 hours after seeding. The viral stock was pre-tittered and diluted to yield approximately 10,000 to 20,000 RLU. The cells were incubated at 37° C. with 5% CO2 for additional 72 hours and were harvested for luciferase assay. Peptide stocks were prepared in 100% DMSO at 10 mg/ml and were first screened at 100 ug/ml and then a dose responsive curve was generated with 10 points 3-fold titration starting from 100 ug/ml.
The specificity of the peptides were counter-screened with AMLV and HIV pseudotyped viruses using the same infection protocol.

In experiment [2] the test system is HCV pseudoparticles. The experiment can be described thus: HCV pseudoparticle (HCVpp) entry assay in Huh7 hepatoma cells, luciferase readout. The following applies: for luciferase units, HCV entry: duplicates; for % of control at ~30 uM: percentage of hepatitis C virus cellular entry at 30 μM peptide vs uninhibited control; for HCVpp % inh: peptide library screen, first screened at 100 ug/ml, cell entry inhibition vs uninhibited control. In kind it is cell-based, hepatitis C virus. Summed up: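 Huh7 cells were pre-treated with peptide for 1 h at 37 °C before exposure to HCV E1/E2-pseudotyped HIV luciferase particles made in 293T cells, followed by 72 h culture and luciferase readout. Peptides were tested at 10 points, 3-fold, from 100 ug/ml; particles lacking envelope served as non-specific entry control.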

Where [3] appears, read: 0.1 nM of peptide (printed for three rows), two values per peptide and row.
Where [4] appears, read: 0.3 nM of peptide, two values per peptide.
[5] abbreviates: 1 nM of peptide, two values per peptide.
Where [6] appears, read: 3 nM of peptide, two values per peptide.
[7] abbreviates: 10 nM of peptide, two values per peptide.
Setting [8] is: 30 nM of peptide, two values per peptide.
The mark [9] stands for this setting: 100 nM of peptide, two values per peptide.
Setting [10] is: 300 nM of peptide, two values per peptide.
Where [11] appears, read: 10000 nM of peptide, two values per peptide.

“And” between values parts separate entries of the source, which are not always exact repeats. Equal values may be shown once.

Experimental findings from patent US20100119483A1, “PEPTIDE VIRAL ENTRY INHIBITORS” (Schering Corporation, priority 2004, published 2010) are described below.

For the substance “A-I-K-W-E-Y-V-L-L-L-F-L-L [SEQ ID NO: 100]”, the “luciferase units, AMLV entry” value in experiment [1] (0.04115226 uM of peptide) was 39784 luciferase units and 45324 luciferase units; in experiment [1] (0.1234568 uM of peptide), 46954 luciferase units and 44234 luciferase units; in experiment [1] (0.3703704 uM of peptide), 42008 luciferase units and 39907 luciferase units; in experiment [1] (1.111111 uM of peptide) it was 45723 luciferase units and 43633 luciferase units; in experiment [1] (3.333333 uM of peptide), 70934 luciferase units and 59407 luciferase units; in experiment [1] (10 uM of peptide), 135633 luciferase units and 74847 luciferase units. In addition, the “luciferase units, AMLV entry” value in experiment [1] (30 uM of peptide) is 76883 luciferase units and 56072 luciferase units. Further, the “% control (HCVpp entry), lysine scanning” value in experiment [2] (setting [3]) was 110 % control and 85 % control and 115 % control and 83 % control and 92 % control and 111 % control; in experiment [2] (setting [4]) it was 88 % control and 75 % control; in experiment [2] (setting [5]), 76 % control and 68 % control; in experiment [2] (setting [6]), 61 % control and 83 % control; in experiment [2] (setting [7]) it was 62 % control and 58 % control; in experiment [2] (setting [8]) it was 53 % control and 44 % control. Besides, the “% control (HCVpp entry), lysine scanning” value is 31 % control and 19 % control in experiment [2] (setting [9]); 32 % control and 29 % control in experiment [2] (setting [10]). In addition, the “luciferase units, HCV entry” value in experiment [2] (0.01371742 uM of peptide (three lines)) was 9526 luciferase units and 11368 luciferase units and 13637 luciferase units and 13231 luciferase units and 14358 luciferase units and 15831 luciferase units; in experiment [2] (0.04115226 uM of peptide) it was 7066 luciferase units and 7585 luciferase units; in experiment [2] (0.1234568 uM of peptide) it was 4241 luciferase units and 3590 luciferase units; in experiment [2] (0.3703704 uM of peptide) it was 4161 luciferase units and 2767 luciferase units; in experiment [2] (1.111111 uM of peptide) it was 3041 luciferase units and 2870 luciferase units; in experiment [2] (3.333333 uM of peptide), 4131 luciferase units and 3158 luciferase units. Moreover, the “luciferase units, HCV entry” value is 1538 luciferase units and 1360 luciferase units in experiment [2] (10 uM of peptide); 1262 luciferase units and 1073 luciferase units in experiment [2] (30 uM of peptide). Moreover, the “% of control at ~30 uM” value in experiment [2] came to 6%.
For the substance “N-W-A-K-V-L-I-V-M-L-L-F-A-G-V-D [SEQ ID NO: 28]”, in experiment [1], the AMLVpp % inh is reported as −1%. For the same substance, the HCVpp % inh in experiment [2] amounted to 13%.
Consider “D-M-V-A-G-A-H-W-G-V-L-A-G-L-A-Y [SEQ ID NO: 25]”, for which the AMLVpp % inh in experiment [1] is 14%. In experiment [2], the HCVpp % inh was 27%.
Take “L-I-H-L-H-Q-N-V-V-D-V-Q-Y-L-Y-G [SEQ ID NO: 74]”: the AMLVpp % inh in experiment [1] is on record as 5%. Moreover, the HCVpp % inh in experiment [2] is reported as 22%.
For “G-C-P-E-R-M-A-S-C-S-P-I-D-A-F-A [SEQ ID NO: 40]”, in that order: −4% and 35%.
For “V-P-C-V-R-E-N-N-S-S-R-C-W-V-A-L [SEQ ID NO: 8]”, in that order: 14% and −22%.
In the same order, the values of “A-Q-V-C-G-P-V-Y-C-F-T-P-S-P-V-V [SEQ ID NO: 47]” are −8% and 40%.
“L-F-S-P-G-S-S-Q-K-I-Q-L-V-N-T-N [SEQ ID NO: 33]”: in experiment [1], the AMLVpp % inh was −49%. For the same substance, in experiment [2], the HCVpp % inh turned out to be 61%.
For “V-Y-E-A-A-D-M-I-M-H-T-P-G-C-V-P [SEQ ID NO: 6]”, in that order: 10% and −13%.
In the same order, the values of “L-V-V-S-Q-L-L-R-I-P-Q-A-V-V-D-M [SEQ ID NO: 23]” are −1% and 3%.
Regarding “F-L-A-A-L-F-Y-V-H-K-F-N-S-S-G-C [SEQ ID NO: 38]”, the AMLVpp % inh in experiment [1] was −44%. In experiment [2], the HCVpp % inh stood at 23%.
In the same order, the values of “T-R-G-E-R-C-N-L-E-D-R-D-R-S-E-L [SEQ ID NO: 68]” are −7% and 13%.
In the same order, the values of “V-V-V-G-T-T-D-R-F-G-V-P-T-Y-S-W [SEQ ID NO: 49]” are −22% and 37%.
As to “C-N-C-S-I-Y-P-G-H-V-T-G-H-R-M-A [SEQ ID NO: 19]”, the AMLVpp % inh in experiment [1] worked out at 26%. The HCVpp % inh in experiment [2] is 49%.
In the same order, the values of “T-N-G-S-W-H-I-N-R-T-A-L-N-C-N-D (TNGSWHINRTALNCND; HCV peptide) [SEQ ID NO: 35]” are 30% and 29%.
For “T-G-G-T-N-A-K-N-T-L-G-I-T-S-L-F [SEQ ID NO: 31]”, in that order: −2% and 41%.
In the same order, the values of “S-W-G-E-N-E-T-D-V-L-L-L-N-N-T-R [SEQ ID NO: 51]” are 34% and 23%.
“T-R-P-P-Q-G-N-W-F-G-C-T-W-M-N-S [SEQ ID NO: 53]”: in experiment [1], the AMLVpp % inh is −42%. Further, the HCVpp % inh in experiment [2] was found to be 59%.
In the same order, the values of “L-L-L-A-D-A-R-V-C-A-C-L-W-M-M-L [SEQ ID NO: 79]” are 16% and 77%.
In the same order, the values of “L-E-A-A-C-N-W-T-R-G-E-R-C-N-L-E [SEQ ID NO: 67]” are 37% and 26%.
For “A-L-T-P-T-L-A-A-R-N-A-S-V-P-T-T [SEQ ID NO: 10]”, in that order: 1% and 53%.
With “S-C-S-P-I-D-A-F-A-Q-G-W-G-P-I-T [SEQ ID NO: 41]”, in experiment [1], the AMLVpp % inh was 25%. In experiment [2], the HCVpp % inh is −11%.
As to “P-I-K-W-E-Y-V-L-L-L-F-L-L [SEQ ID NO: 99]”, the “% control (HCVpp entry), proline scanning” value was 64 % control and 84 % control and 108 % control and 70 % control and 101 % control and 121 % control in experiment [2] (setting [3]); 84 % control and 80 % control in experiment [2] (setting [4]); 75 % control and 89 % control in experiment [2] (setting [5]); 68 % control and 56 % control in experiment [2] (setting [6]); 45 % control and 53 % control in experiment [2] (setting [7]); 28 % control and 36 % control in experiment [2] (setting [8]). Further, the “% control (HCVpp entry), proline scanning” value in experiment [2] (setting [9]) is 21 % control and 34 % control; in experiment [2] (setting [10]), 21 % control and 29 % control; in experiment [2] (setting [11]), 24 % control and 16 % control. Further, the “% of control at ~30 uM” value in experiment [2] stood at 21%.
Turning to “A-I-K-W-E-Y-V-L-L-L-A-L-L (AIKWEYVLLLALL; HCV peptide) [SEQ ID NO: 95, Ala-scan]”, the “% control (HCVpp entry), alanine scanning” value in experiment [2] (setting [3]) is 82 % control and 89 % control and 76 % control and 114 % control and 97 % control and 113 % control; in experiment [2] (setting [4]), 70 % control and 62 % control; in experiment [2] (setting [5]), 72 % control and 91 % control; in experiment [2] (setting [6]), 52 % control and 85 % control; in experiment [2] (setting [7]), 47 % control and 64 % control; in experiment [2] (setting [9]) it was 53 % control and 35 % control. Moreover, the “% control (HCVpp entry), alanine scanning” value in experiment [2] (setting [10]) was 13 % control and 18 % control; in experiment [2] (setting [11]) it was 15 % control and 25 % control. Moreover, the “% of control at ~30 uM” value in experiment [2] turned out to be 8%.
